# Reference: PMC7782499, “Progerinin, an optimized progerin-lamin A binding inhibitor, ameliorates premature senescence phenotypes of Hutchinson-Gilford progeria syndrome” (Communications Biology, 2021)
# Values joined by “and” are separate entries in the source; they are usually repeats but may differ in a detail not shown here. Equal entries are not always repeated.
# System: Lmna G609G/G609G mouse
# Experiment: Body weight of Lmna G609G/G609G mice (ratio, week 4 = 1)
# Assay type: in vivo
# Conditions: for body weight: IP injection
# Excerpt: Fig. 3 In vivo favorable effect of SLC-D011. A Gross morphology of Lmna^G609G/G609G mice (10 weeks old) was ameliorated after injection with SLC-D011. At the same age, the experimental group (D011) of mice were larger than vehicle-injected control (Con) subjects regardless of gender. B, C SLC-D011 increases body weight B and extends life span C of Lmna^G609G/G609G progeria model mouse (Con: n = 8; SLC-D011: n = 8). Compared with 14.8 weeks of average (ave) life span with maximum (max) life span of 15.5 weeks, 20 mg/kg of intraperitoneal (i.p) injection (twice a week) of SLC-D011 could extend the life span upto 19 weeks (max = 21 weeks). Lmna^G609G/G609G mice were injected with SLC-D011 from age of 5-week old, *p < 0.05. D Gross morphology of SLC-D011 injected Lmna^G609G/+ mouse. […] E SLC-D011 increases body weights of Lmna^G609G/+ mice (Con: n = 10; SLC-D011: n = 11), *p < 0.05. F Favorable effect of SLC-D011 on life span of Lmna^G609G/+ mice. Compared with vehicle-injected control group (ave = 46.7 weeks and max = 48 weeks), SLC-D011 treatment obviously extended the average life span to 63 weeks (max = 64 weeks). The injection was started from 32 weeks old, **p < 0.001. “Con” means vehicle (a solvent composed of DMSO and PBS)-injected mouse group. TEXT PRINTED IN THE PICTURE: (C) D011: Kaplan-Meier survival curve in Lmna^G609G/G609G: Ave=19; Kaplan-Meier survival curve in Lmna^G609G/G609G: Max=21 | (F) D011: Kaplan-Meier survival curve in Lmna^G609G/+: Ave=63; Kaplan-Meier survival curve in Lmna^G609G/+: Max=64 DOUBTS OF THE COPYIST ABOUT THIS PICTURE: Panels C and F: the Ave/Max labels are not printed with a group name. They are assigned to D011 (solid curve) or Con (dashed curve) only by their position beside the curves. / Panel C Ave=14.8, Max=15.5 and panel F Ave=46.7, Max=48 stand beside the dashed Con curve. They are left out because Con is the control group, not a substance. / No unit is printed with the Ave/Max values. Only the axis reads Age (weeks).
# Fig. 4 Oral administration of SLC-D011 suppresses premature aging features. A Gross morphology of SLC-D011-treated (D011) mice at 8 weeks old. Body size of treated mouse was apparently larger than that of the untreated control (Con) mouse. B Oral administration of SLC-D011 increases body weights of Lmna^G609G/G609G mice. Compared with untreated control group, body weight of treated mouse was increased by ~35%, *p < 0.05. C Oral administration of SLC-D011 extends the life span of Lmna^G609G/G609G mouse. SLC-D011 in monoolein-based solution was treated by oral gavage (50 mg/kg, daily) from 5 weeks old. […] E Grip test of Lmna^G609G/+ mice at 41-week-old was performed after administration of SLC-D011 for 6 weeks. The test was repeated 10 times for each mouse (n > 4), **p < 0.001. Data are presented as mean ± SD. F Electrocardiographic analysis of Lmna^G609G/+ mice (untreated: n = 4; SLC-D011: n = 4) and Lmna^+/+ mice (n = 3) after treatment with SLC-D011 for 6 weeks (unpaired t test). Heart rate is shown as beats per minute (bpm). G Dental abnormalities in Lmna^G609G/+ mice (untreated: n = 4; SLC-D011: n = 5) and Lmna^+/+ mice (n = 4). […] Lower incisors of Lmna^G609G transgenic mice grow toward the palate because of malocclusion. Oral administration of SLC-D011 for 6 weeks alleviates dental abnormalities. H Anti-aging effects of single treatment of SLC-D011 or lonafarnib were measured in HGPS patients-derived cells (AG11513, AG03199, AG11498, and AG03198, Coriell Cell Repositories). Single treatment of SLC-D011, compared to lonafarnib, reduced the expression of progerin but induced the expression of H3K9me3 and cyclin B1 in HGPS cells more effectively. HGPS patients-derived cells were treated with SLC-D011 (500 nM) or lonafarnib (500 nM) for 3 days. I Scheme of interaction between lamin A and progerin. SLC-D011 interrupts the interaction between lamin A and progerin through direct binding to the C-terminal region of progerin. […]
structure (smiles),measurement,setting,value
CC1(C)Oc2cc3oc(=O)ccc3cc2C[C@@H]1OC/C=C/c1ccccc1 [SLC-D011],body weight,after week 5,1.167 and 1.25 and 1.182 and 1
same,body weight,after week 7,1.333 and 1.417 and 1.273 and 1.077
same,body weight,after week 8,1.5 and 1.25 and 1.273 and 1 and 1.462
same,body weight,after week 9,1.417 and 1.25 and 1.273 and 1 and 1.385
same,body weight,after week 10,1.333 and 1.167 and 1.182 and 1
same,body weight,after week 13,1.167 and 0.8333 and 1.091 and 0.8462
same,body weight,after week 15,1 and 0.6667 and 0.9231
same,body weight,after week 16,1 and 0.8182 and 0.8462
same,body weight,after week 17,0.8333 and 0.8182 and 0.7692
same,body weight,column after week 4,1.083 and 1
same,body weight,column after week 6,1.25 and 1.333 and 1.273 and 1.077
same,body weight,column after week 11,1.333 and 1.083 and 1.182 and 1
same,body weight,column after week 12,1.25 and 0.9167 and 1.182 and 0.9231
same,body weight,column after week 14,1.083 and 0.75 and 1.091 and 0.9231
same,body weight,column after week 18,0.8333 and 0.7692
same,body weight,column after week 19,0.75
same,body weight,week 5,1.167 and 1.091 and 1
same,body weight,week 6,1.167 and 1.333 and 1.273 and 1
same,body weight,week 7,1.333 and 1.417 and 1.273 and 1
same,body weight,week 8,1.417 and 1.273 and 1.077 and 1.385
same,body weight,week 10,1.417 and 1.167 and 1.273 and 1 and 1.385
same,body weight,week 11,1.333 and 1.083 and 1.182 and 1.077
same,body weight,week 12,1.25 and 1 and 1.182 and 0.9231
same,body weight,week 13,1.25 and 0.8333 and 1.182 and 0.9231
same,body weight,week 15,1.083 and 0.75 and 1.091 and 0.8462
same,body weight,week 16,1 and 0.8462
same,body weight,week 17,0.8333 and 0.8182 and 0.8462
same,body weight,week 18,0.8333 and 0.7692
same,body weight,week 19,0.8333
same,Increase of body weight compared with untreated control,oral administration,~ 35%
